In PMC10447463, “Data-mining unveils structure–property–activity correlation of viral infectivity enhancing self-assembling peptides” (Nature Communications, 2023):
Where two headings read alike, the source gives them in different places.

Assays:
[1] = Turbidity, derived count rate of scattered light; format: physicochemical; details: for Zeta Count Rate / kcps / Count Rate: derived count rate of scattered light; for Log Count Rate: log of derived count rate; for Count Rate: turbidity
Outline: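 One-day room-temperature aggregation at 1 mg/mL in PBS (pH 7.4) preceded measurement; samples then went into 1 mM KCl. Triplicates per sample, two independent experiments averaged.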

[2] = tested on: HIV-1 infection of TZM-bl cells; experiment: HIV-1 infectivity enhancement assay, β-galactosidase luminescence; format: cell-based; details: for Log10 Inf. rel. to EF-C: log10 of HIV-1 infection of TZM-bl cells relative to EF-C, Fig S15 source data, asymmetric std dev errors; for Rel-to EFC / n-fold to virus: Fig S8 panels B, D; for Rel-to EFC: infectivity enhancement relative to EF-C
[3] = Zeta-potential measurement; format: physicochemical; details: for Zeta-pot. / mV: zeta potential of peptide, Fig S15 source data
Outline: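 PBS pH 7.4, 1 mg/mL peptide (DMSO stock), 1 d RT aggregation; diluted in 1 mM KCl pre-read; mobility → zeta (Smoluchowski); n = 3, 2 expts averaged.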

[4] = category 1 or 0 from count rate, key not given
[5] = mean, std deviation in next column
[6] = mean, std deviation in separate column
[7] = Feb2021, 1.3 µM value relative to virus only (0 µM)
[8] = Feb2021, Log10 of infectivity relative to EF-C
[9] = Feb2021, n-fold enhancement relative to EF-C
[10] = Feb2021, n-fold infectivity relative to EF-C
[11] = Feb2021, unrounded values of the 1.3 µM column
[12] = Feb2021 run, infectivity n-fold relative to virus alone
[13] = Feb2021 run, log10 of infectivity relative to EF-C
[14] = Feb2021 run, n-fold infectivity relative to EF-C
[15] = infectivity class (low / medium / high) of each library peptide, main list in c1-c6, same classes repeated in sub-lists of sequences containing the hydrophobicity/charge patterns P+,H0,P+,H0,P0,H0,P0, P+,H0,P0,H0,P0,H0,P0, P+,H0,P0,H0
[16] = infectivity class (low / medium / high) of the peptide in the sequence-pattern analysis, Fig. S22-A4, class limits not given
[17] = Feb2021, figures match the 1.3 µM column
[18] = Feb2021, infectivity relative to virus only
[19] = Feb2021, log10 of infectivity relative to EF-C
[20] = infectivity n-fold relative to virus alone

Substance	Zeta Count Rate Category ([1]; category 1/0, no key printed)	Zeta Count Rate Category [1, 4]	Zeta Count Rate / kcps [1, 5]	Zeta Count Rate / kcps [1, 6]	n-fold to virus (Feb2021) [2, 7]	Log10 of Rel to EFC (Feb2021) [2, 8]	Rel-to EFC (Feb-2021) [2, 9]	Rel-to EFC (Feb-2021) [2, 10]	Absolute Infectivity / RLU /s (Feb2021) [2, 11]	n-fold to virus (Feb2021) [2, 12]	Log10 of Rel to EFC (Feb2021) [2, 13]	Rel-to EFC (Feb-2021) [2, 14]	infectivity [2, 15]	infectivity [2, 16]	Log10 Inf. rel. to EF-C [2]	Zeta category ( +1 = if > 4 mV;-1 = if < -4 mV; 0 = -4mV to 4 mV) [3]	Zeta category ( +1 = if > 4 mV;-1 = if < -4 mV; 0 = -4mV to 4 mV) ([3]; category from zeta potential)	Zeta Pot. / mV ([3]; mean, Std Zeta in next column)	Zeta Pot. / mV ([3]; mean, Std in separate column)	Zeta-pot. / mV [3]	also measured
KAKAQANM [TM152]	0	0	42.5 kcps	42.5 kcps	0.3782	-2.046	0.009	0.009	496.7 RLU /s	0.3782	-2.046	0.009	low	low	-2.046	0 (0 = -4mV to 4 mV)	0 (0 = -4mV to 4 mV)	-2.62 mV	-2.62 mV	-2.62 mV	
KFKFKFQF [TG18]		1	1036 kcps			-0.09726	0.7993	0.7993						high	-0.09726	1 (+1 = if > 4 mV)	1 (+1 = if > 4 mV)	15.2 mV		15.2 mV	Zeta Count Rate Category ([1]; category 1 / 0, no key given): 1; Zeta Count Rate / kcps [1]: 1036 kcps; Absolute Infectivity / RLU /s (Feb2021) [2, 17]: 18696.66667 RLU /s; n-fold to virus (Feb2021) [2, 18]: 33.59; Zeta Pot. / mV [3]: 15.2 mV
KFKQFFNMWQ [JG5]		1	236.9 kcps			-1.049	0.08925	0.08925					low		-1.0494	0 (0 = -4mV to 4 mV)	0 (0 = -4mV to 4 mV)	-3.43 mV		-3.43 mV	Zeta Count Rate Category ([1]; category 1 / 0, no key given): 1; Zeta Count Rate / kcps [1]: 236.9 kcps; Absolute Infectivity / RLU /s (Feb2021) [2, 17]: 1000 RLU /s; n-fold to virus (Feb2021) [2, 18]: 3.75; Zeta Pot. / mV [3]: -3.43 mV
KIKIKIQI [TG13]		1	999.1 kcps			-1.014	0.09675	0.09675					low	low	-1.014	1 (+1 = if > 4 mV)	1 (+1 = if > 4 mV)	6.97 mV		6.97 mV	Zeta Count Rate Category ([1]; category 1 / 0, no key given): 1; Zeta Count Rate / kcps [1]: 999.1 kcps; Absolute Infectivity / RLU /s (Feb2021) [2, 17]: 2073 RLU /s; n-fold to virus (Feb2021) [2, 18]: 4.065; Zeta Pot. / mV [3]: 6.97 mV
KIKIKIQINMWQ [VH9]		1	1603.1 kcps			-0.1048	0.7855						high	high	-0.1048		1 (+1 = if > 4 mV)	13.1 mV		13.1 mV	
KIKIQINMW [JGB1 /TM85]		1	239.6 kcps	239.6 kcps		0.3339	2.157			90.64	0.3339	2.157	high	high	0.3339	1 (+1 = if > 4 mV)	1 (+1 = if > 4 mV)	19.7 mV	19.7 mV	19.7 mV	
KWKWQW [KB3]	1		1545 kcps		0.6105			0.01453	386.7 RLU /s				low		-1.838	1 (+1 = if > 4 mV)		7.55 mV		7.55 mV	Log Count Rate ([1]; Fig S8 panels A, C, asymmetric log errors): 3.189; Log Count Rate ([1]; Fig S8 panels B, D): 3.189; Count Rate ([1]; Fig S8 panels B, D): 1544.87; Log10 of Rel to EFC (Feb2021) [2, 19]: -1.838; Rel-to EFC [2]: 0.01453; n-fold to virus [2, 20]: 0.6105
MKIKIQINM [TM41]	1		981.3 kcps		11.48			0.2732	15000 RLU /s				medium		-0.5635	1 (+1 = if > 4 mV)		9.13 mV		9.13 mV	Log10 of Rel to EFC (Feb2021) [2, 19]: -0.5635
MKIKIQINMWQ [TM52]	1	1	1475 kcps	1475 kcps	17.6	-0.378	0.4188	0.4188	12786.66667 RLU /s	17.6	-0.378	0.4188	medium		-0.378	1 (+1 = if > 4 mV)	1 (+1 = if > 4 mV)	10.8 mV	10.8 mV	10.8 mV	
QCKAKAQA [CK24]	1	1	1319.1 kcps	1319.1 kcps	1.061	-1.598	0.02526	0.02526	806.7 RLU /s	1.061	-1.598	0.02526	low		-1.598	0 (0 = -4mV to 4 mV)	0 (0 = -4mV to 4 mV)	0.674 mV	0.674 mV	0.674 mV	Log Count Rate ([1]; Fig S8 panels B, D): 3.12; Count Rate ([1]; Fig S8 panels B, D): 1319.1; Rel-to EFC [2]: 0.02526; n-fold to virus [2, 20]: 1.0614
QCKAKAQANMWQ [CK22]	1	1	427.5 kcps	427.5 kcps	3.018	-1.144	0.07183	0.07183	2767 RLU /s	3.018	-1.144	0.07183	low		-1.144	-1 (-1 = if < -4 mV)	-1 (-1 = if < -4 mV)	-8.05 mV	-8.05 mV	-8.05 mV	
QCKFKFQF [CK9]	1	1	2669 kcps	2669 kcps	32.23	-0.1152	0.767	0.767	20303.33333 RLU /s	32.23	-0.1152	0.767		high	-0.1152	1 (+1 = if > 4 mV)	1 (+1 = if > 4 mV)	12.2 mV	12.2 mV	12.2 mV	
